Source: patent US9445601B2, “Fungicide active substance combinations” (Bayer Intellectual Property GmbH, priority 1997, dated 2016)
Where two headings read alike, the source gives them in different places.

Tests used:
Assay type in all cases: in vivo
Sphaerotheca fuliginea = test: Sphaerotheca test (cucumber)/protective; details: for pest or weed control at 2.5 g/ha: application rate 2.5 g/ha
Method: Sphaerotheca Test (Cucumber)/Protective
(§1) • Solvent: 47 parts by weight of acetone • Emulsifier: 3 parts by weight of alkylaryl polyglycol ether
After the spray coating has dried on, the plants are inoculated with an aqueous spore suspension of Sphaerotheca fuliginea. The plants are then placed in a greenhouse at about 23° C. and a relative atmospheric humidity of about 70%.
Evaluation is carried out 10 days after the inoculation.

[1] = test system: Erysiphe graminis f. sp. tritici; test: Erysiphe test (wheat)/curative; details: curative, single active compound, 7 days after inoculation
Method: Erysiphe Test (Wheat)/Curative
(§2) • Solvent: 10 parts by weight of N-methyl-pyrrolidone • Emulsifier: 0.6 parts by weight of alkylaryl polyglycol ether
(§3) To produce a suitable preparation of active compound, 1 part by weight of active compound or active compound combination is mixed with the stated amounts of solvent and emulsifier, and the concentrate is diluted with water to the desired concentration, or a commercial formulation of active compound or active compound combination is diluted with water to the desired concentration.
To test for curative activity, young plants are dusted with spores of Erysiphe graminis f. sp. tritici. 48 hours after the inoculation, the plants are sprayed with the active compound preparation at the stated application rate.
(§4) The plants are then placed in a greenhouse at a temperature of about 20° C. and a relative atmospheric humidity of about 80% to promote the development of mildew pustules.
(§5) Evaluation is carried out 7 days after the inoculation. 0% means an efficacy which corresponds to that of the control, whereas an efficacy of 100% means that no infection is observed.

[2] = test system: Erysiphe graminis f. sp. hordei; test: Erysiphe test (barley)/curative; details: curative, single active compound, application rate 25 g/ha, evaluation 7 days after inoculation
Method: Erysiphe Test (Barley)/Curative
as §2, §3
To test for curative activity, young plants are dusted with spores of Erysiphe graminis f. sp. hordei. 48 hours after the inoculation, the plants are sprayed with the active compound preparation at the stated application rate.
(§6) The plants are placed in a greenhouse at a temperature of about 20° C. and a relative atmospheric humidity of about 80% to promote the development of mildew pustules.
as §5

Leptosphaeria nodorum = Leptosphaeria nodorum test (wheat)/protective; details: protective, single active compound, application rate 25 g/ha, 10 days after inoculation
Method: Leptosphaeria nodorum Test (Wheat)/Protective
as §2, §3
(§7) To test for protective activity, young plants are sprayed with the active compound preparation at the stated application rate.
After the spray coating has dried on, the plants are sprayed with a spore suspension of Leptosphaeria nodorum. The plants remain in an incubation cabin at 20° C. and 100% relative atmospheric humidity for 48 hours.
The plants are then placed in a greenhouse at a temperature of about 15° C. and a relative atmospheric humidity of about 80%.
(§8) Evaluation is carried out 10 days after the inoculation. 0% means an efficacy which corresponds to that of the control, whereas an efficacy of 100% means that no infection is observed.

Puccinia recondita = test: Puccinia test (wheat)/protective; details: protective, single active compound, application rate 25 g/ha, 10 days after inoculation
Method: Puccinia Test (Wheat)/Protective
as §2, §3
To test for protective activity, young plants are inoculated with a spore suspension of Puccinia recondita in a 0.1% strength aqueous agar solution. After the spray coating had dried on, the plants are sprayed with the active compound preparation at the stated application rate.
The plants remain in an incubation cabin at 20° C. and 100% relative atmospheric humidity for 24 hours.
The plants are then placed in a greenhouse at a temperature of about 20° C. and a relative atmospheric humidity of about 80% to promote the development of rust pustules.
as §8

Fusarium nivale = Fusarium nivale test (triticale)/seed treatment; details: dry seed dressing, single active compound, about 3 weeks after sowing
Method: Fusarium nivale Test (Triticale)/Seed Treatment
(§9) The active compounds are applied as a dry seed dressing. This is prepared by extending the respective active compound or the active compound combination with ground minerals to give a finely pulverulent mixture which ensures uniform distribution on the seed surface.
(§10) To dress the seed, the infected seed together with the seed dressing is shaken for 3 minutes in a sealed glass flask.
2×100 corns of wheat are sown at a depth of 1 cm in standard soil and cultivated in a greenhouse at a temperature of about 10° C. and a relative atmospheric humidity of about 95% in seed trays which receive a light regimen of 15 hours per day.
(§11) About 3 weeks after sowing, the plants are evaluated for symptoms. 0% means an efficacy which corresponds to that of the control, whereas an efficacy of 100% means that no infection is observed.

[3] = test system: Erysiphe graminis f. sp. hordei; test: Erysiphe test (barley)/protective; details: protective per Example 4 (table title prints curative), single active compound, application rate 25 g/ha, 7 days after inoculation
Method: Erysiphe Test (Barley)/Protective
as §2, §3, §7
After the spray coating has dried on, the plants are dusted with spores of Erysiphe graminis f. sp. hordei.
as §6, §5

Rhizoctonia solani = Rhizoctonia solani test (cotton)/seed treatment; details: dry seed dressing, single active compound, application rate 25 g/ha, evaluation after 8 days
Method: Rhizoctonia solani Test (Cotton)/Seed Treatment
as §9, §10
2×50 corns of seed are sown at a depth of 2 cm in standard soil infected with Rhizoctonia solani, and the seeds are cultivated in a greenhouse at a temperature of about 22° C. in seed trays which receive a light regimen of 15 hours per day.
Evaluation is carried out after 8 days. 0% means an efficacy which corresponds to that of the control, whereas an efficacy of 100% means that no infection is observed.

Fusarium culmorum = Fusarium culmorum test (wheat)/seed treatment; details: dry seed dressing, single active compound, application rate 75 g/ha as printed, about 3 weeks after sowing
Method: Fusarium culmorum Test (Wheat)/Seed Treatment
as §9, §10
2×100 corns of wheat are sown at a depth of 1 cm in standard soil and cultivated in a greenhouse at a temperature of about 18° C. and a relative atmospheric humidity of about 95% in seed trays which receive a light regimen of 15 hours per day.
as §11

[4] = test system: Erysiphe graminis f. sp. tritici; test: Erysiphe test (wheat)/protective; details: protective, single active compound, application rate 6.25 g/ha, 7 days after inoculation
Method: Erysiphe Test (Wheat)/Protective
as §2, §3, §7
After the spray coating has dried on, the plants are dusted with spores of Erysiphe graminis f. sp. tritici.
as §4, §5

Venturia inaequalis = test: Venturia test (apple)/protective; details: protective, single active compound, application rate 1 g/ha, evaluation 12 days after inoculation
Method: Venturia Test (Apple)/Protective
as §1, §3
To test for protective activity, young plants are sprayed with the active compound preparation at the stated application rate. After the spray coating has dried on, the plants are inoculated with an aqueous konidia suspension of the causative organism of apple scab Venturia inaequalis and then remain in an incubation cabin at about 20° C. and 100% relative atmospheric humidity for one day.
The plants are then placed in a greenhouse at about 21° C. and a relative atmospheric humidity of about 90%.
Evaluation is carried out 12 days after the inoculation. 0% means an efficacy which corresponds to that of the control, whereas an efficacy of 100% means that no infection is observed.

[5] = Podosphaera fuliginea, 240 h, cucumber, protective, single active compound, evaluation 10 days after inoculation, read-out: Efficacy in %
[6] = Podosphaera fuliginea, 240 h, cucumber, protective, single active compound, application rate 12.5 g/ha, evaluation 10 days after inoculation, read-out: Efficacy in %
[7] = application rate 75 g/ha as printed
[8] = Podosphaera fuliginea, 240 h, cucumber, protective, single active compound, application rate 25 g/ha, evaluation 10 days after inoculation, read-out: Efficacy in %

CO/N=C(/C(=O)OC)c1ccccc1COc1ccccc1C [(XIII)]
pest or weed control at 2.5 g/ha (Sphaerotheca fuliginea; [5]): 57%
Efficacy in % ([1]; application rate 6.25 g/ha): 94%

CC12CC1(C)C(=O)N(c1cc(Cl)cc(Cl)c1)C2=O (centres unmarked) [(XV)]
pest or weed control at 12.5 g/ha (Sphaerotheca fuliginea; [6]): 0%

CO/N=C(\C1=NOCCO1)c1ccccc1Oc1ncnc(Oc2ccccc2Cl)c1F [(XIV)]
Efficacy in % [2]: 75%
Efficacy in % (Leptosphaeria nodorum): 87%
pest or weed control at 2.5 g/ha (Sphaerotheca fuliginea; [5]): 22%
Efficacy in % (Puccinia recondita): 94%
Efficacy in % ([1]; application rate 12.5 g/ha): 0%
Efficacy in % (Fusarium nivale; [7]): 94%

COc1ccc(C(=CC(=O)N2CCOCC2)c2ccc(Cl)cc2)cc1OC [(XVIII)]
pest or weed control at 12.5 g/ha (Sphaerotheca fuliginea; [6]): 0%

O=C1c2ccccc2C(=O)N1SC(Cl)(Cl)Cl [(XIX)]
pest or weed control at 25 g/ha (Sphaerotheca fuliginea; [8]): 0%

CO/C=C(/C(=O)OC)c1ccccc1Oc1cc(Oc2ccccc2C#N)ncn1 [(XII)]
Efficacy in % [3]: 92%
pest or weed control at 2.5 g/ha (Sphaerotheca fuliginea; [5]): 59%

zinc propylene-1,2-bis-(dithiocarbamate) [(VI)]
Efficacy in % (Sphaerotheca fuliginea; cucumber, protective, single active compound, application rate 25 g/ha, evaluation 10 days after inoculation): 0%

Cc1cc(C)nc(Nc2ccccc2)n1 [(XVIa), pyrimethanil]
pest or weed control at 25 g/ha (Sphaerotheca fuliginea; [8]): 0%

CSC(=O)c1cccc2nnsc12 [(X)]
pest or weed control at 2.5 g/ha (Sphaerotheca fuliginea; [5]): 0%

CC(C)(C)C(O)C(Oc1ccc(Cl)cc1)n1cncn1 (centres unmarked) [(IIb), 1-(4-chloro-phenoxy)-3,3-dimethyl-1-(1,2,4-triazol-1-yl)-butan-2-ol]
pest or weed control at 2.5 g/ha (Sphaerotheca fuliginea; [5]): 80%
Efficacy in % ([1]; application rate 25 g/ha): 81%

CC(C)(C)C(O)C(Oc1ccc(-c2ccccc2)cc1)n1cncn1 (centres unmarked) [(IIc), 1-(4-phenyl-phenoxy)-3,3-dimethyl-1-(1,2,4-triazol-1-yl)-butan-2-ol]
Efficacy in % (Rhizoctonia solani): 0%
pest or weed control at 2.5 g/ha (Sphaerotheca fuliginea; [5]): 0%
Efficacy in % (Fusarium culmorum): 27%

CC(C)(C)C(O)(CCc1ccc(Cl)cc1)Cn1cncn1 (centres unmarked) [(III)]
Efficacy in % (Rhizoctonia solani): 27%
pest or weed control at 2.5 g/ha (Sphaerotheca fuliginea; [5]): 50%
Efficacy in % ([1]; application rate 25 g/ha): 88%
Efficacy in % [4]: 57%

Cc1cc(C2CC2)nc(Nc2ccccc2)n1 [(XVIb)]
pest or weed control at 25 g/ha (Sphaerotheca fuliginea; [8]): 0%
Efficacy in % ([1]; application rate 12.5 g/ha): 0%

CC(C)(C)C(=O)C(Oc1ccc(Cl)cc1)n1cncn1 (centres unmarked) [(IIa), 1-(4-chloro-phenoxy)-3,3-dimethyl-1-(1,2,4-triazol-1-yl)-butane-2-one]
pest or weed control at 2.5 g/ha (Sphaerotheca fuliginea; [5]): 37%

N#Cc1c[nH]cc1-c1cccc2c1OC(F)(F)O2 [(XXIb), 4-(2,2-difluoro-1,3-benzodioxol-7-yl)-1H-pyrrole-3-carbonitrile]
Efficacy in % ([1]; application rate 6.25 g/ha): 38%

CCCOC(=O)NC(C(=O)NC(C)c1ccc(C)cc1)C(C)C (centres unmarked) [(IX)]
pest or weed control at 12.5 g/ha (Sphaerotheca fuliginea; [6]): 13%

N#Cc1c(Cl)c(Cl)c(Cl)c(C#N)c1Cl [(XVII)]
pest or weed control at 25 g/ha (Sphaerotheca fuliginea; [8]): 0%

CCC(C)(NC(=O)c1cc(Cl)c(C)c(Cl)c1)C(=O)CCl (centres unmarked) [(XXIV)]
pest or weed control at 12.5 g/ha (Sphaerotheca fuliginea; [6]): 0%

CC1(C(=O)Nc2ccc(O)c(Cl)c2Cl)CCCCC1 [(VIII)]
pest or weed control at 12.5 g/ha (Sphaerotheca fuliginea; [6]): 0%

OC(Cc1ccccc1Cl)(Cn1nc[nH]c1=S)C1(Cl)CC1 (centres unmarked) [(I), 2-[2-(1-chlorocyclopropyl)-3-(2-chlorophenyl)-2-hydroxypropyl]-2,4-dihydro-[1,2,4]-triazole-3-thione]
Efficacy in % [2]: 81%
Efficacy in % (Venturia inaequalis): 1%
Efficacy in % (Rhizoctonia solani): 19%
Efficacy in % [3]: 83%
Efficacy in % (Leptosphaeria nodorum): 62%
pest or weed control at 0.5 g/ha (Sphaerotheca fuliginea; Podosphaera fuliginea, 240 h, cucumber, protective, single active compound, application rate 0.5 g/ha, evaluation 10 days after inoculation, read-out: Efficacy in %): 0%
pest or weed control at 2.5 g/ha (Sphaerotheca fuliginea; [5]): 21%
Efficacy in % (Puccinia recondita): 38%
Efficacy in % ([1]; application rate 6.25 g/ha): 25%
Efficacy in % ([1]; application rate 12.5 g/ha): 50%
Efficacy in % ([1]; application rate 25 g/ha): 75%
Efficacy in % (Fusarium nivale; application rate 25 g/ha): 0%
Efficacy in % (Fusarium nivale; [7]): 14%
Efficacy in % (Fusarium culmorum): 32%
Efficacy in % [4]: 57%

N#Cc1c[nH]cc1-c1cccc(Cl)c1Cl [(XXIa), 4-(2,3-dichlorophenyl)-pyrrole-3-carbonitrile]
Efficacy in % (Fusarium nivale; application rate 25 g/ha): 0%

CN(C)S(=O)(=O)N(SC(F)(Cl)Cl)c1ccccc1 [(IVa)]
pest or weed control at 25 g/ha (Sphaerotheca fuliginea; Podosphaera fuliginea, 240 h, read-out: Efficacy in %): 0%

Cc1ccc(N(SC(F)(Cl)Cl)S(=O)(=O)N(C)C)cc1 [(IVb)]
pest or weed control at 25 g/ha (Sphaerotheca fuliginea; [8]): 0%

CCCN(CC)CC1COC2(CCC(C(C)(C)C)CC2)O1 (centres unmarked) [(XI), 8-t-butyl-2-(N-ethyl-N-n-propyl-amino)-methyl-1,4-dioxaspiro-[5,4]-decane]
Efficacy in % (Sphaerotheca fuliginea; cucumber, protective, single active compound, application rate 12.5 g/ha, evaluation 10 days after inoculation): 0%
Efficacy in % ([1]; application rate 12.5 g/ha): 0%
